Experiment: Inhibition of Nav1.7 in C57BL/6 […] embryonic DRG cells assessed as blockade of spontaneous neuronal firing by Maestro microelectrode array analysis

IC50: 1.2 nM
SMILES: N[C@H]1CC[C@@H](CNc2cc(F)c(S(=O)(=O)Nc3nccs3)cc2Cl)CC1
